From patent US20240376097A1, “BCL-2 Inhibitor” (BeiGene Ltd., priority 2020, published 2024) come the findings set out here.

Like-named read-outs stand apart in the source and are kept apart here.

Assay [1] deals with RS4;11 (BCL-2 dependent acute lymphoblastic leukemia cell line). Put plainly: RS4;11 Cell Proliferation Assay. The assay is classed as cell-based. The conditions noted are these: Homo sapiens, RS4-11, RS4;11 cells, read-out: Cellular proliferation assay (IC50, nM) RS4. Summed up: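 Viability measured via CellTiter-Glo luminescence after a 48 h, 37 °C exposure to compounds (10 points, highest 1 μM). Seeding was 50,000 RS4;11 cells per well in 10% FBS RPMI-1640; IC50 given as mean.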

Assay [2] has as its target recombinant human Bcl-2 D103Y protein (Homo sapiens (Human), UniProt P10415, D103Y). Put plainly: Bcl-2-D103Y Biochemical Assay (TR-FRET). In kind it is binding. To be noted: for IC50: TR-FRET, FITC labeled Bak peptide; for Ratio of Bcl-2 D103Y/Bcl-2 WT: ratio of IC50. A digest of the protocol: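 Compounds titrated against the Bcl-2 D103Y–ligand interaction; inhibition derived from the TR-FRET emission ratio 490 nm/520 nm after 337 nm excitation. Four-parameter logistic fitting gave IC50.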

The target of assay [3] is Recombinant human Bcl-2 protein (Homo sapiens (Human), UniProt P10415). Description: Bcl-2 TR-FRET Assay. The assay is classed as binding. Summed up: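 TR-FRET read (337 nm excitation, 520/490 nm emission) after 1 h with 0.5 nM FITC-labeled Bak peptide and Tb-cryptate anti-6His antibody. Bcl-2 at 0.05 nM had been pre-incubated 0.5 h with compound. IC50 fitted by four-parameter logistic equation.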

Assay [4] deals with BCL-2 G101V knock-in cell line H96 (derive from RS4;11). Put plainly: Bcl 2-G101V Knock-In RS4;11 Cell Proliferation Assay. The assay is classed as cell-based. To be noted: Homo sapiens, RS4;11 Bcl-2 G101V knock-in clone H96, 48 hrs, CellTiter-GLO, read-out: Cellular proliferation assay (IC50, nM) RS4. Summed up:
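CellTiter-Glo luminescence after 48 h, 37 °C compound treatment (10 concentrations, maximum 1 μM or 10 μM) gave mean IC50 values. Cells were 50,000 per well of H96, a BCL2-G101V knock-in single clone derived from RS4;11 by Cas9 editing.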
In general terms: In ATP-based viability assays light output follows the ATP content of the culture.

Assay [5] addresses recombinant human Bcl-2-G101V protein (Homo sapiens (Human), UniProt P10415, G101V). Description: Bcl-2-G101V TR-FRET Assay. To be noted: Bcl-2 G101V mutant, TR-FRET; read-out: Biochemical assay (IC50, nM) Bcl-2 G101V. The assay is classed as binding. A digest of the protocol:
(§1)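 Displacement of ligand from recombinant human Bcl-2-G101V measured by TR-FRET (ex337 nm, em490/520 nm), inhibition derived from the 490/520 ratio across compound titrations. IC50 from four-parameter logistic fit.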

Assay [6] has as its system recombinant human Bcl-2-G101V protein. Description: Bcl-2-G101V TR-FRET Assay. In kind it is binding. The conditions noted are these: ratio of biochemical IC50 Bcl-2 G101V / Bcl-2 WT. Summed up: as §1
[7] abbreviates: Bcl-2 wild type, TR-FRET, read-out: Biochemical assay (IC50, nM) Bcl-2 WT.
Where [8] appears, read: wild type Bcl-2, unit inferred, read-out: Bcl-2 WT.

With `COc1cc(CN2CCN(C3CC4(CCN(c5ccc(C(=O)NS(=O)(=O)c6ccc(NC[C@H]7CC[C@](C)(O)CC7)c([N+](=O)[O-])c6)c(Oc6cnc7[nH]ccc7c6)c5)CC4)C3)[C@H](c3ccccc3C(C)C)C2)cc2c1OCCC2` [Example 302, 2-((1H-pyrrolo[2,3-b]pyridin-5-yl)oxy)-N-((4-((((1r,4r)-4-hydroxy-4-methylcyclohexyl)methyl)amino)-3-nitrophenyl)sulfonyl)-4-(2-((R)-2-(2-isopropylphenyl)-4-((8-methoxychroman-6-yl)methyl)piperazin-1-yl)-7-azaspiro[3.5]nonan-7-yl)benzamide], the IC50 was determined as 0.31 nM in assay [1]; 0.069 nM in assay [2]; 0.071 nM in assay [3] (setting [7]); 0.071 nM in assay [3] (setting [8]); 0.79 nM in assay [4]; 0.2 nM in assay [5]. Also, in assay [2], the “Ratio of Bcl-2 D103Y/Bcl-2 WT” value is listed as 1.0. In addition, in assay [6], the “Ratio of Bcl-2 G101V/WT” value came out at 2.8.
On to `COc1cc(CN2CCN(C3CC4(CCN(c5ccc(C(=O)NS(=O)(=O)c6ccc(NC[C@H]7CC[C@](C)(O)CC7)c([N+](=O)[O-])c6)c(Oc6cnc7[nH]cc(F)c7c6)c5)CC4)C3)[C@H](c3ccccc3C(C)C)C2)cc2c1OCC2` [Example 303], for which the IC50 in assay [1] amounted to 0.3 nM; in assay [2] it was 0.16 nM; in assay [3] (setting [7]), 0.11 nM; in assay [3] (setting [8]), 0.11 nM; in assay [4], 0.52 nM; in assay [5], 0.26 nM. Also, the “Ratio of Bcl-2 D103Y/Bcl-2 WT” value in assay [2] is listed as 1.4. In assay [6], the “Ratio of Bcl-2 G101V/WT” value was found to be 2.3.
Turning to `CC(C)c1ccccc1[C@@H]1CN(Cc2ccc3c(c2)OCC3)CCN1C1CC2(CCN(c3ccc(C(=O)NS(=O)(=O)c4ccc(NC[C@H]5CC[C@](C)(O)CC5)c([N+](=O)[O-])c4)c(Oc4cnc5[nH]ccc5c4)c3)CC2)C1` [Example 304, 2-((1H-pyrrolo[2,3-b]pyridin-5-yl)oxy)-4-(2-((R)-4-((2,3-dihydrobenzofuran-6-yl)methyl)-2-(2-isopropylphenyl)piperazin-1-yl)-7-azaspiro[3.5]nonan-7-yl)-N-((4-((((1r,4r)-4-hydroxy-4-methylcyclohexyl)methyl)amino)-3-nitrophenyl)sulfonyl)benzamide], the IC50 amounted to 0.3 nM in assay [1]; 0.22 nM in assay [2]; 0.13 nM in assay [3] (setting [7]); 0.13 nM in assay [3] (setting [8]); 2.3 nM in assay [4]; 0.41 nM in assay [5]. Also, the “Ratio of Bcl-2 D103Y/Bcl-2 WT” value in assay [2] is on record as 1.8. In addition, the “Ratio of Bcl-2 G101V/WT” value in assay [6] came to 3.2.
Consider `COc1cc(CN2CCN(C3CC4(C3)CN(c3ccc(C(=O)NS(=O)(=O)c5ccc(NC[C@H]6CC[C@](C)(O)CC6)c([N+](=O)[O-])c5)c(Oc5cnc6[nH]cc(F)c6c5)c3)C4)[C@H](c3ccccc3C(C)C)C2)cc2ccoc12` [Example 306, 2-((3-fluoro-1H-pyrrolo[2,3-b]pyridin-5-yl)oxy)-N-((4-((((1r,4r)-4-hydroxy-4-methylcyclohexyl)methyl)amino)-3-nitrophenyl)sulfonyl)-4-(6-((R)-2-(2-isopropylphenyl)-4-((7-methoxybenzofuran-5-yl)methyl)piperazin-1-yl)-2-azaspiro[3.3]heptan-2-yl)benzamide], for which the IC50 came to 0.12 nM in assay [1]; 0.31 nM in assay [2]; 0.31 nM in assay [3] (setting [7]); 0.31 nM in assay [3] (setting [8]); 0.15 nM in assay [4]; 0.97 nM in assay [5]. For the same molecule, the “Ratio of Bcl-2 D103Y/Bcl-2 WT” value in assay [2] is on record as 1.0. In addition, the “Ratio of Bcl-2 G101V/WT” value in assay [6] is reported as 3.1.
As for `COc1cc(CN2CCN(C3CC4(C3)CN(c3ccc(C(=O)NS(=O)(=O)c5ccc(NC[C@H]6CC[C@](C)(O)CC6)c([N+](=O)[O-])c5)c(Oc5cnc6[nH]ccc6c5)c3)C4)[C@H](c3ccccc3C(C)C)C2)cc2ccoc12` [Example 307, 2-((1H-pyrrolo[2,3-b]pyridin-5-yl)oxy)-N-((4-((((1r,4r)-4-hydroxy-4-methylcyclohexyl)methyl)amino)-3-nitrophenyl)sulfonyl)-4-(6-((R)-2-(2-isopropylphenyl)-4-((7-methoxybenzofuran-5-yl)methyl)piperazin-1-yl)-2-azaspiro[3.3]heptan-2-yl)benzamide], the IC50 worked out at 0.11 nM in assay [1]; 0.18 nM in assay [2]; 0.17 nM in assay [3] (setting [7]); 0.17 nM in assay [3] (setting [8]); 0.17 nM in assay [4]; 0.43 nM in assay [5]. Besides, the “Ratio of Bcl-2 D103Y/Bcl-2 WT” value in assay [2] turned out to be 1.1. The “Ratio of Bcl-2 G101V/WT” value in assay [6] worked out at 2.5.
On to `CC(C)c1ccccc1[C@@H]1CN(Cc2ccnc3c2OCC(C)(C)O3)CCN1C1CC2(C1)CN(c1ccc(C(=O)NS(=O)(=O)c3ccc(NC[C@H]4CC[C@](C)(O)CC4)c([N+](=O)[O-])c3)c(Oc3cnc4[nH]cc(F)c4c3)c1)C2` [Example 317], for which the IC50 in assay [1] stood at 0.19 nM; in assay [2], 0.057 nM; in assay [3] (setting [7]) it was 0.033 nM; in assay [3] (setting [8]) it was 0.033 nM; in assay [4], 0.43 nM; in assay [5], 0.12 nM. Also, the “Ratio of Bcl-2 D103Y/Bcl-2 WT” value in assay [2] is listed as 1.7. In assay [6], the “Ratio of Bcl-2 G101V/WT” value is given as 3.6.
On to `COc1cc(CN2CCN(C3CC4(C3)CN(c3ccc(C(=O)NS(=O)(=O)c5ccc(NC[C@H]6CC[C@](C)(O)CC6)c([N+](=O)[O-])c5)c(Oc5cnc6[nH]ccc6c5)c3)C4)[C@H](c3ccccc3C(C)C)C2)cc2c1OCCC2` [Example 318, 2-((1H-pyrrolo[2,3-b]pyridin-5-yl)oxy)-N-((4-((((1r,4r)-4-hydroxy-4-methylcyclohexyl)methyl)amino)-3-nitrophenyl)sulfonyl)-4-(6-((R)-2-(2-isopropylphenyl)-4-((8-methoxychroman-6-yl)methyl)piperazin-1-yl)-2-azaspiro[3.3]heptan-2-yl)benzamide], for which the IC50 in assay [1] was 0.2 nM; in assay [2] it was 0.052 nM; in assay [3] (setting [7]) it was 0.056 nM; in assay [3] (setting [8]), 0.056 nM; in assay [4] it was 0.31 nM; in assay [5], 0.16 nM. The “Ratio of Bcl-2 D103Y/Bcl-2 WT” value in assay [2] is given as 0.9. For the same molecule, in assay [6], the “Ratio of Bcl-2 G101V/WT” value was found to be 2.9.
On to `COc1cc(CN2CCN(C3CC4(C3)CN(c3ccc(C(=O)NS(=O)(=O)c5ccc(NCC6CCOCC6)c([N+](=O)[O-])c5)c(Oc5cnc6[nH]ccc6c5)c3)C4)[C@H](c3ccccc3C(C)C)C2)ccc1C1CC1` [Example 319], for which the IC50 in assay [1] came out at 0.24 nM; in assay [2], 0.42 nM; in assay [3] (setting [7]), 0.25 nM; in assay [3] (setting [8]), 0.25 nM; in assay [4], 0.84 nM; in assay [5], 0.85 nM. The “Ratio of Bcl-2 D103Y/Bcl-2 WT” value in assay [2] amounted to 1.7. Further, the “Ratio of Bcl-2 G101V/WT” value in assay [6] worked out at 3.3.
With `COc1cc(CN2CCN(C3CC4(C3)CN(c3ccc(C(=O)NS(=O)(=O)c5ccc(NCC6CCOCC6)c([N+](=O)[O-])c5)c(Oc5cnc6[nH]cc(F)c6c5)c3)C4)[C@H](c3ccccc3C(C)C)C2)ccc1C1CC1` [Example 320, (R)-4-(6-(4-(4-cyclopropyl-3-methoxybenzyl)-2-(2-isopropylphenyl)piperazin-1-yl)-2-azaspiro[3.3]heptan-2-yl)-2-((3-fluoro-1H-pyrrolo[2,3-b]pyridin-5-yl)oxy)-N-((3-nitro-4-(((tetrahydro-2H-pyran-4-yl)methyl)amino)phenyl)sulfonyl) benzamide], the IC50 in assay [1] came to 0.19 nM; in assay [2], 0.52 nM; in assay [3] (setting [7]), 0.55 nM; in assay [3] (setting [8]), 0.55 nM; in assay [4], 0.47 nM; in assay [5], 1.7 nM. Besides, the “Ratio of Bcl-2 D103Y/Bcl-2 WT” value in assay [2] was determined as 0.93. The “Ratio of Bcl-2 G101V/WT” value in assay [6] came out at 3.1.
